ChEMBL document CHEMBL3091339 (J Med Chem, 2013)
pIC50, pKi: −log10 of the molar value. Active and inactive are the calls of the source.

Tests used:
Mus musculus [1] = test: Anticonvulsant activity in CD-1 mouse assessed as protection against maximal electroshock-induced tonic extension of hind limbs at 100 mg/kg, po after 2 hrs; assay type: functional, organism-based; parameters: dose 100 mg/kg; settings: Hindlimb
Mus musculus [2] = test: Anticonvulsant activity in CD-1 mouse assessed as protection against maximal electroshock-induced tonic extension of hind limbs at 300 mg/kg, ip after 0.5 hrs; assay type: functional, organism-based; parameters: dose 300 mg/kg; settings: Hindlimb
Mus musculus [3] = test: Anticonvulsant activity in CD-1 mouse assessed as protection against maximal electroshock-induced tonic extension of hind limbs at 100 mg/kg, po after 0.5 hrs; assay type: functional, organism-based; parameters: dose 100 mg/kg; settings: Hindlimb
Mus musculus [4] = test: Anticonvulsant activity in CD-1 mouse assessed as protection against maximal electroshock-induced tonic extension of hind limbs at 300 mg/kg, po after 2 hrs; assay type: functional, organism-based; parameters: dose 300 mg/kg; settings: Hindlimb
Mus musculus [5] = test: Anticonvulsant activity in CD-1 mouse assessed as protection against maximal electroshock-induced tonic extension of hind limbs at 300 mg/kg, po after 0.5 hrs; assay type: functional, organism-based; parameters: dose 300 mg/kg; settings: Hindlimb
Mus musculus [6] = test: Anticonvulsant activity in intravenous PTZ-induced CF-1 mouse assessed as increase in seizure threshold for clonus at 182 mg/kg, po treated for 15 mins prior to PTZ-challenge relative to control; assay type: functional
Mus musculus [7] = test: Anticonvulsant activity in intravenous PTZ-induced CF-1 mouse assessed as increase in seizure threshold for twitch at 182 mg/kg, po treated for 15 mins prior to PTZ-challenge relative to control; assay type: functional
[8] = Neurotoxicity in po dosed Sprague-Dawley rat by rotarod test; assay type: toxicity, organism-based; settings: in vivo
Carbonic anhydrase 2 = Carbonic anhydrase 2 (Homo sapiens, UniProt P00918)
Description: Inhibition of human carbonic anhydrase 2 by CO2 hydration assay

[9] = Volume of distribution at steady state in beagle dog at 2 mg/kg, iv; assay type: ADME, organism-based, Canis lupus familiaris; parameters: dose 2 mg/kg, route intravenous; settings: in vivo, read-out: Vdss
[10] = Clearance in beagle dog at 2 mg/kg, iv; assay type: ADME, organism-based, Canis lupus familiaris; parameters: dose 2 mg/kg, route intravenous; settings: in vivo
[11] = AUC in beagle dog at 10 mg/kg, po; assay type: ADME, organism-based, Canis lupus familiaris; parameters: dose 10 mg/kg, route oral; settings: plasma
[12] = Half life in beagle dog at 10 mg/kg, po; assay type: ADME, organism-based, Canis lupus familiaris; parameters: dose 10 mg/kg, route oral; settings: in vivo
Canis familiaris = test: Oral bioavailability in beagle dog at 10 mg/kg; assay type: ADME, organism-based, Canis lupus familiaris; settings: in vivo
[13] = Cmax in beagle dog at 10 mg/kg, po; assay type: ADME, organism-based, Canis lupus familiaris; parameters: dose 10 mg/kg, route oral; settings: in vivo
[14] = Clearance in rat at 2 mg/kg, iv; assay type: ADME, organism-based; parameters: dose 2 mg/kg, route intravenous; settings: in vivo
[15] = Volume of distribution at steady state in rat at 2 mg/kg, iv; assay type: ADME, organism-based; parameters: dose 2 mg/kg, route intravenous; settings: in vivo, read-out: Vdss
[16] = Half life in rat at 10 mg/kg, po; assay type: ADME, organism-based; parameters: dose 10 mg/kg, route oral; settings: in vivo
Rattus norvegicus [17] = test: Oral bioavailability in rat at 10 mg/kg; assay type: ADME, organism-based; settings: in vivo
[18] = Cmax in rat at 10 mg/kg, po; assay type: ADME, organism-based; parameters: dose 10 mg/kg, route oral; settings: in vivo
Liver microsome = test: Drug metabolism in human liver microsomes assessed as hydroxylation metabolite formation by LC-MS/MS analysis; assay type: ADME
[19] = target: Sodium-dependent dopamine transporter (Homo sapiens) (UniProt Q01959); test: Binding affinity to dopamine transporter (unknown origin)
[20] = target: T1, 5-hydroxytryptamine receptor 2C (Homo sapiens) (UniProt P28335); test: Binding affinity to 5HT2C receptor (unknown origin)
T1 sequence (whole entry): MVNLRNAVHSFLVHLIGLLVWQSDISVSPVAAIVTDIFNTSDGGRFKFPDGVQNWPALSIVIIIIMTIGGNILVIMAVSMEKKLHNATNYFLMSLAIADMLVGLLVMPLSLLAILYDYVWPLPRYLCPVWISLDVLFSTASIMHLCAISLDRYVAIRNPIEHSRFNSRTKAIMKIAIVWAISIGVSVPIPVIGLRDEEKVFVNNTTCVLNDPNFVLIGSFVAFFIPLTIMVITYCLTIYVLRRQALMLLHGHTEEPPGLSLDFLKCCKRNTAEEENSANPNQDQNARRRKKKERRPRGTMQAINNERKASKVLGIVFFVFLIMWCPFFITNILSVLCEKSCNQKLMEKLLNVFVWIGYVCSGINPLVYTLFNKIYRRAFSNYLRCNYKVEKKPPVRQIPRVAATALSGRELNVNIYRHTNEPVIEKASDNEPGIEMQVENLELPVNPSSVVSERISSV

[21] = target: Histamine H1 receptor (Homo sapiens) (UniProt P35367); test: Inhibition of histamine H1 receptor (unknown origin) at 10 uM relative to control
Homo sapiens [22] = organism: Homo sapiens; test: Binding affinity to chloride channel (unknown origin) at 10 uM
Homo sapiens [23] = organism: Homo sapiens; test: Binding affinity to central-type benzodiazepine receptor (unknown origin) at 10 uM
Homo sapiens [24] = organism: Homo sapiens; test: Binding affinity to GABA (unknown origin) at 10 uM
[25] = target: Voltage-dependent N-type calcium channel subunit alpha-1B (Rattus norvegicus) (UniProt Q02294); test: Inhibition of rat Cav2.2-mediated calcium flux expressed in HEK cells at 100 uM at 0.07 Hz by whole-cell patch-clamp assay relative to control; assay type: cell-based; settings: HEK293
Sequence of Voltage-dependent N-type calcium channel subunit alpha-1B (Rattus norvegicus) (Q02294 whole entry, looked up): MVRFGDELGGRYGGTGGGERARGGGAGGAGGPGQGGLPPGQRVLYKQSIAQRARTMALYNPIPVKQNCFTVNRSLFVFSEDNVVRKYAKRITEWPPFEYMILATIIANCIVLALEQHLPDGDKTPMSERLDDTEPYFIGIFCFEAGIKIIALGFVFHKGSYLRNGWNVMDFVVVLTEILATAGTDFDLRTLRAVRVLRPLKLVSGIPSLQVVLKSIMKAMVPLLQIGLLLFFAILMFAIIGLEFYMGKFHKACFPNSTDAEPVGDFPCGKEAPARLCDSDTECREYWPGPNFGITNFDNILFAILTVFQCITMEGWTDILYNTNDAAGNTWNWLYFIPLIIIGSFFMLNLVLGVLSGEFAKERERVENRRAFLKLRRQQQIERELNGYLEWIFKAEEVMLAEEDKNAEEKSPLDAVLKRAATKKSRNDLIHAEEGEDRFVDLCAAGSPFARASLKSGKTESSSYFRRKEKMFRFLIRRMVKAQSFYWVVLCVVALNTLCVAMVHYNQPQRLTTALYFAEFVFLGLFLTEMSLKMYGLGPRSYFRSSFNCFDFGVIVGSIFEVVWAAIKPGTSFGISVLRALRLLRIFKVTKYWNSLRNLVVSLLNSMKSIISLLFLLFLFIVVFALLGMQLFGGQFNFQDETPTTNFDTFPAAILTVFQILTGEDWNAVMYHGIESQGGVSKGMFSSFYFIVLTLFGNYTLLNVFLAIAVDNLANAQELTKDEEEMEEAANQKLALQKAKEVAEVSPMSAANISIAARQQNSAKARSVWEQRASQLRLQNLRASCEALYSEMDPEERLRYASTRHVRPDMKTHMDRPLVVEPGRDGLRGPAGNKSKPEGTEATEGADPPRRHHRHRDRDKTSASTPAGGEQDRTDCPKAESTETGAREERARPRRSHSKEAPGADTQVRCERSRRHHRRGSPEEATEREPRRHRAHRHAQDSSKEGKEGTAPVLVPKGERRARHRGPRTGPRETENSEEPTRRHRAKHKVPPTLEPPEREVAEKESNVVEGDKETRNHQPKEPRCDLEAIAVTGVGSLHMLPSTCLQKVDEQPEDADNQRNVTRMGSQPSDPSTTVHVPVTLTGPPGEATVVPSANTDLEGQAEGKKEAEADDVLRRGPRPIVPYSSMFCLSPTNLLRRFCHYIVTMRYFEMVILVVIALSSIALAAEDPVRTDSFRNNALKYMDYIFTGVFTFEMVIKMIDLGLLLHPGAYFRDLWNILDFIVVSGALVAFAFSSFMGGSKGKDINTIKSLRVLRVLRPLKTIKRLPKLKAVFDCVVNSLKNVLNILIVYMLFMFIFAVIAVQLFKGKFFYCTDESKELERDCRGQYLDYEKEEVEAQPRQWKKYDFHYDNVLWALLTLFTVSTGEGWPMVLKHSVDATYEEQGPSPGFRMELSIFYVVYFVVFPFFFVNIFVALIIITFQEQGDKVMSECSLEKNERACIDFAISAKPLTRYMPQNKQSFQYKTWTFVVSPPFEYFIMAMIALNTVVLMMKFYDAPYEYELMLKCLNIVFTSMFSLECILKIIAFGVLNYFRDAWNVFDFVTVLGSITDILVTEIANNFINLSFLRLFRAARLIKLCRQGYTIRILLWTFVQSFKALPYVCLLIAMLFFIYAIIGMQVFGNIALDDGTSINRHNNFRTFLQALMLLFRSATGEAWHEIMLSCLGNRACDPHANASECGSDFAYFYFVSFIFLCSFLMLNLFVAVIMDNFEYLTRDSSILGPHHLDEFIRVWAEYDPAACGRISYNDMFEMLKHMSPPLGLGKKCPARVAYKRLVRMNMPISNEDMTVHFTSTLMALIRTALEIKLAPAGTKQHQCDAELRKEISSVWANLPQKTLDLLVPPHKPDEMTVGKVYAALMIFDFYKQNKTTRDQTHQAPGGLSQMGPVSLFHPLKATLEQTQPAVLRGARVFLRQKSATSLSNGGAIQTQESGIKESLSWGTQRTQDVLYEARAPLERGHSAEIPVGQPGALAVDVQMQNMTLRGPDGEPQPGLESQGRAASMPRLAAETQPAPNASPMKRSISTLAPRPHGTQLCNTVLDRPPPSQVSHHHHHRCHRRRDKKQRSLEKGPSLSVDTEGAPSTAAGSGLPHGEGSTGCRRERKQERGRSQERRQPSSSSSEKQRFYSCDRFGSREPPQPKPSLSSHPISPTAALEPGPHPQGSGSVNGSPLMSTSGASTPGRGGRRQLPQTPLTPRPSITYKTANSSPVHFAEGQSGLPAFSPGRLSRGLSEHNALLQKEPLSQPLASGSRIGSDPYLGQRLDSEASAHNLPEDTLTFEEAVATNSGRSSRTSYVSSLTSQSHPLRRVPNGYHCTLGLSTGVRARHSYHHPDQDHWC

[26] = target: Voltage-dependent N-type calcium channel subunit alpha-1B (Rattus norvegicus) (UniProt Q02294); test: Inhibition of rat Cav2.2-mediated calcium flux expressed in HEK cells at 100 uM at 5 Hz by whole-cell patch-clamp assay relative to control; assay type: cell-based; settings: HEK293
[27] = target: Sodium channel protein type 2 subunit alpha (Rattus norvegicus, UniProt P04775); test: Inhibition of rat Nav1.2 expressed in CHL1610 cells at -67 mV after 2 to 3 mins by whole-cell patch-clamp assay; assay type: cell-based
Sequence of Sodium channel protein type 2 subunit alpha (P04775 whole entry): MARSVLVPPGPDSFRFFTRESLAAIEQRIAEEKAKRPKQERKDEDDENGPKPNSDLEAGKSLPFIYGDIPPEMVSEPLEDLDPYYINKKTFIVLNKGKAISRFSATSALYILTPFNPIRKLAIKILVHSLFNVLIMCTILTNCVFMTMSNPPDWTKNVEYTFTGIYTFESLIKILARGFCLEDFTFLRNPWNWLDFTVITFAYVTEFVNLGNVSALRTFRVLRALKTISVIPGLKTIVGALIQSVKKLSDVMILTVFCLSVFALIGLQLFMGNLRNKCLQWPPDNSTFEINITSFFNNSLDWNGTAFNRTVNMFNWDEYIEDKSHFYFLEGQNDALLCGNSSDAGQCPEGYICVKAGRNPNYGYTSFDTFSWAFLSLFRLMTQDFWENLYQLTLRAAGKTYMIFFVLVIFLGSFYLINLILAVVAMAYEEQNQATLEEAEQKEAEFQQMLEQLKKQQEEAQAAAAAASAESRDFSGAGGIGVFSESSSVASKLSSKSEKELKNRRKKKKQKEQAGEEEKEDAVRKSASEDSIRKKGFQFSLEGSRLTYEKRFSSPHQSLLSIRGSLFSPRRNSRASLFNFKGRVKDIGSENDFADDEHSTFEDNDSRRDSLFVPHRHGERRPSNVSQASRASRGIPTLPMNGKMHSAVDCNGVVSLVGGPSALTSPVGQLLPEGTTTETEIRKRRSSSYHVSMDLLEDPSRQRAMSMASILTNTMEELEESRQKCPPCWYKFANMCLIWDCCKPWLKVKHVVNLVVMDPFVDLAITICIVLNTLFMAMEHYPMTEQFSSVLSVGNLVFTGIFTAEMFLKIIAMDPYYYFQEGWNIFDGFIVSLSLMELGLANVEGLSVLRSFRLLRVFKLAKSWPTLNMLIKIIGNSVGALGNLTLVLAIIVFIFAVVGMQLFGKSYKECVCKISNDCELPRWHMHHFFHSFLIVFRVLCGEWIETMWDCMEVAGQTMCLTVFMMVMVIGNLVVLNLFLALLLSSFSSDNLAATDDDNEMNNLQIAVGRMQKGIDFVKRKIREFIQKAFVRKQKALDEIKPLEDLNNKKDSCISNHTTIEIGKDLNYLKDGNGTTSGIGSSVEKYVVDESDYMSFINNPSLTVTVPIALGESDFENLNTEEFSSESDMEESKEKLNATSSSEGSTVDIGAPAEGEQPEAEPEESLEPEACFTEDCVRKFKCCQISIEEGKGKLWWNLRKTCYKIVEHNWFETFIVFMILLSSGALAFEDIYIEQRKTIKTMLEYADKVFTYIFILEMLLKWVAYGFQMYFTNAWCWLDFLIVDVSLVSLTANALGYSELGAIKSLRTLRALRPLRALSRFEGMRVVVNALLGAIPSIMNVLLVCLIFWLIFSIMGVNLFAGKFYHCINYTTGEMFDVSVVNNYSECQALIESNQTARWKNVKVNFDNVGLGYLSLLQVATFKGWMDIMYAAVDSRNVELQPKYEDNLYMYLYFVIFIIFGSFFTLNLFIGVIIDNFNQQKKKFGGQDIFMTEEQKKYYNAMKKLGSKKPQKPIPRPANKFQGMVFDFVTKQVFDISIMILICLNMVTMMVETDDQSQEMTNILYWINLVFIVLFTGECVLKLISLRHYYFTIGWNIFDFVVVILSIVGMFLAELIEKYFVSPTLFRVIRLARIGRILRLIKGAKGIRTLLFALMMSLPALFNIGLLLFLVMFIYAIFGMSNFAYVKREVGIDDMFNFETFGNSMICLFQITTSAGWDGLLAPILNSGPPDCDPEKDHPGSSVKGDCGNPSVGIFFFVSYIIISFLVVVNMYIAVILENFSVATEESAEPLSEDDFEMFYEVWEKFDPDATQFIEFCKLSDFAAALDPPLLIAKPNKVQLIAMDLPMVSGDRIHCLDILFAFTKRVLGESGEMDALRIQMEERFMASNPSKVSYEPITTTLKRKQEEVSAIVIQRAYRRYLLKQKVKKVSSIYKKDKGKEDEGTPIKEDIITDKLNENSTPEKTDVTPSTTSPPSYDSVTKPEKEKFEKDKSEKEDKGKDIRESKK

[28] = target: Sodium channel protein type 2 subunit alpha (Rattus norvegicus) (UniProt P04775); assay type: cell-based; settings: CHL1610
Sequence of Sodium channel protein type 2 subunit alpha (Rattus norvegicus) (P04775 whole entry, looked up): as the sequence (P04775 whole entry) above

[29] = Neurotoxicity in rat by muscle tone test; assay type: toxicity, organism-based, Muscle tissue; settings: in vivo
[30] = Neurotoxicity in rat by positional sense test; assay type: toxicity, organism-based; settings: in vivo
Rattus norvegicus [31] = test: Anticonvulsant activity in ip dosed Sprague-Dawley rat hippocampal kindling model assessed as reduction in global seizures treated 15 for mins post suprathreshold-stimulation; assay type: functional, organism-based; settings: Hippocampus
Rattus norvegicus [32] = test: Anticonvulsant activity in ip dosed Sprague-Dawley rat hippocampal kindling model assessed as effect on after discharge duration treated 15 for mins post suprathreshold-stimulation; assay type: functional, organism-based; settings: Hippocampus
Mus musculus [33] = test: Anticonvulsant activity in intravenous PTZ-induced CF-1 mouse assessed as increase in seizure threshold for clonus at […], ip treated for 15 mins prior to PTZ-challenge relative to control; assay type: functional
Mus musculus [34] = test: Anticonvulsant activity in intravenous PTZ-induced CF-1 mouse assessed as increase in seizure threshold for twitch at […], ip treated for 15 mins prior to PTZ-challenge relative to control; assay type: functional
Carbonic anhydrase 1 = Carbonic anhydrase 1 (Homo sapiens, UniProt P00915); test: Inhibition of carbonic anhydrase 1 (unknown origin)
Sequence of Carbonic anhydrase 1 (P00915 whole entry): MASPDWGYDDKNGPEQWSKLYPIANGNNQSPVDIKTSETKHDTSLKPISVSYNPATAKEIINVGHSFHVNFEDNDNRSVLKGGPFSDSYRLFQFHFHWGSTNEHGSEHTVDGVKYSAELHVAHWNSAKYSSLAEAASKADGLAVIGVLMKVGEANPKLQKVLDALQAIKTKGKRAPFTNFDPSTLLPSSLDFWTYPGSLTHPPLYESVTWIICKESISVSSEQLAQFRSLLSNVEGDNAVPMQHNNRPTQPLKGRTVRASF

[35] = target: T2, Voltage-dependent N-type calcium channel subunit alpha-1B (Rattus norvegicus, UniProt Q02294)
T2 sequence (Q02294 whole entry): as the sequence (Q02294 whole entry, looked up) above
Description: Inhibition of rat Cav2.2-mediated calcium flux expressed in HEK cells by FDSS assay

[36] = target: T2, Voltage-dependent N-type calcium channel subunit alpha-1B; remark: listed apart in the source
Description: Inhibition of rat Cav2.2-mediated calcium flux expressed in HEK cells at 0.07 Hz by whole-cell patch-clamp assay

in vivo [37] = settings: beagle, dog, po, 10 mg/kg
in vivo [38] = settings: rat, po, 10 mg/kg
[39] = target: Sodium channel protein type 2 subunit alpha (Rattus norvegicus) (UniProt P04775); settings: CHL1610
Rattus norvegicus [40] = test: Anticonvulsant activity in ip dosed Sprague-Dawley rat hippocampal kindling model assessed as suppression of seizure activity treated 15 for mins post suprathreshold-stimulation; assay type: functional, organism-based; settings: Hippocampus
Mus musculus [41] = organism: Mus musculus; test: animal or person; settings: CF-1, Hindlimb, po, 2 h
Description: Anticonvulsant activity in po dosed CF-1 mouse assessed as protection against maximal electroshock-induced tonic extension of hind limbs measured at 2 hrs

Mus musculus [42] = organism: Mus musculus
Description: Anticonvulsant activity in po dosed CF-1 mouse assessed as protection against maximal electroshock-induced tonic extension of hind limbs measured at 1 hr

NS(=O)(=O)NCC1Oc2ccccc2O1
Activity (Mus musculus [1]): inactive
Activity (Mus musculus [2]): Active
Activity (Mus musculus [3]): Active

NS(=O)(=O)NCCC1COc2ccccc2O1 (configuration not stated)
Activity (Mus musculus [4]): inactive
Activity (Mus musculus [5]): Active
Activity (Mus musculus [1]): inactive
Activity (Mus musculus [3]): inactive

NS(=O)(=O)NC[C@H]1COc2c(F)cccc2O1
Activity (Mus musculus [4]): Active
Activity (Mus musculus [1]): inactive

NS(=O)(=O)NC[C@H]1COc2cc(Br)ccc2O1
Activity (Mus musculus [4]): Active
Activity (Mus musculus [5]): inactive

NS(=O)(=O)NC[C@H]1COc2cc(Cl)c(Cl)cc2O1
Activity (Mus musculus [3]): inactive

NS(=O)(=O)NC[C@H]1COc2cc(F)ccc2O1
Activity (Mus musculus [4]): Active

NS(=O)(=O)NC[C@H]1COc2cccc(Cl)c2O1
Activity (Mus musculus [1]): inactive

NS(=O)(=O)NCC1COc2ccccc2O1 (racemic)
Activity (Mus musculus [6]): 59%
Activity (Mus musculus [7]): 41%
TD50 [8]: 182 mg/kg
Activity (Mus musculus [2]): Active

CN(C)S(=O)(=O)NCC1COc2ccccc2O1 (racemic)
Activity (Mus musculus [4]): inactive
pIC50 (Carbonic anhydrase 2): < 3.00

CN(CC1COc2ccccc2O1)S(N)(=O)=O (racemic)
Activity (Mus musculus [5]): Active

NS(=O)(=O)NC[C@H]1COc2cc(Cl)ccc2O1 [JNJ-26489112]
Vd [9]: 0.63 L/kg
clearance [10]: 0.5 mL/min/kg
AUC [11]: 212 µg·h/mL
half-life [12]: 20 h
F (Canis familiaris): 83%
Cmax [13]: 11500 ng/mL
clearance [14]: 1.6 mL/min/kg
Vd [15]: 0.39 L/kg
half-life [16]: 8.2 h
F (Rattus norvegicus [17]): 95%
Cmax [18]: 9090 ng/mL
Drug metabolism (Liver microsome): Active
INH [19]: 16 µM
INH [20]: 29 µM
inhibition [21]: 23%
inhibition (Homo sapiens [22]): inactive
inhibition (Homo sapiens [23]): inactive
inhibition (Homo sapiens [24]): inactive
inhibition [25]: 37%
inhibition [26]: 53%
pIC50 [27]: 4.44
inhibition [28]: inactive
NOAEL [29]: 500 mg/kg
NOAEL [30]: 500 mg/kg
Activity (Rattus norvegicus [31]): Active
Activity (Rattus norvegicus [32]): inactive
Activity (Mus musculus [33]): 232%
Activity (Mus musculus [34]): 80%
pIC50 (Carbonic anhydrase 1): 4.74
pKi (Carbonic anhydrase 1): 5.66
Activity (Mus musculus [4]): Active
Activity (Mus musculus [3]): inactive
pIC50 [35]: 4.47
pIC50 [36]: 4.15
Tmax (in vivo [37]): 0.917 h
Tmax (in vivo [38]): 0.883 h
inhibition [39]: Dose-dependent effect

O=C1NC(=O)C(c2ccccc2)(c2ccccc2)N1 [PHENYTOIN]
Activity (Rattus norvegicus [40]): Active
ED50 (Mus musculus [41]): 9 mg/kg

CC1(C)O[C@@H]2[C@@H](CO[C@@]3(COS(N)(=O)=O)OC(C)(C)O[C@@H]23)O1 [TOPIRAMATE]
Activity (Rattus norvegicus [40]): inactive
ED50 (Mus musculus [42]): 43.8 mg/kg
